Measured values as given in patent US20260041679A1, “METHOD OF TREATING HYPERTENSION WITH THE ALDOSTERONE SYNTHASE INHIBITOR BAXDROSTAT” (CINCOR PHARMA, INC., priority 2022, published 2026).

Tested on: patients with uHTN
Assay: Study 124 Part 1: seated SBP in patients with uncontrolled hypertension (Example 9)
Assay type: in vivo, human
Set-up: key to Model-Based Least-Squares Mean Change from Baseline (SBP) / LSMEANS change from baseline (SBP) / Model-Based Least-Square Mean Change from Baseline (SBP): LS mean change from baseline in seated SBP, mmHg
Description: Study 124 is a double-blind, placebo-controlled, dose range finding, multicenter study conducted in patients with uHTN receiving background antihypertensive agent(s) that are either an ACEI or an ARB, an ACEI/ARB plus a thiazide diuretic, or an ACEI/ARB plus a calcium channel blocker. The study consists of two parts: Part 1 consists of an 8-week treatment period in which the patients are to be assigned to one of 4 dose groups in equal ratio testing 0.5 mg, 1 mg, and 2 mg baxdrostat effects compared to a placebo. Patients are to administer double-blind baxdrostat tablets once per day while they continue taking the background antihypertensive medications. After 8 weeks of double-blind treatment, patients were to enter part 2 of the study unless the patient was assigned to the 2 mg group and the SBP remains ≥130 mmHg. In part 2 of the study, all patients are to cease dosing with background antihypertensive medication and take only baxdrostat 2 mg dose as a monotherapy for 4 weeks.
Key inclusion criteria include that patients are on a stable regimen of anti-hypertensive agents for at least 8 weeks; and have a seated BP≥140 mmHg. Key exclusion criteria include a seated SBP≥180 mmHg and estimated glomerular filtration rate (eGFR)<30 mL/min/1.73 m^2.
In this table, CI=confidence interval, DBP=diastolic blood pressure, LS=least squares, SBP=systolic blood pressure, SE=standard error. The LS means, CIs, and p-values are from an MMRM model with change from baseline as the dependent variable with randomized treatment, visit, and treatment-by-visit interaction as fixed categorical effects; along with covariates of the baseline value, race (African American versus non-African American), and the type of background antihypertensive regimen. The restricted maximum likelihood estimation (REML) approach will be used with an unstructured covariance matrix and the Kenward-Roger approximation for degrees of freedom.

[1] = 2 mg (N = 9), mITT, Female Non-Hispanic Female Patients
[2] = 2 mg (N = 13), mITT, Non-Hispanic Male Patients
[3] = 2 mg (N = 16), mITT Population for Hispanic Compliant Patients
[4] = 2 mg (N = 16), mITT, Hispanic Male Patients
[5] = 2 mg (N = 19), mITT, Female Hispanic/Latino Patients
[6] = Female Hispanic/Latino, mITT, 0.5 mg, Week 6
[7] = Female Hispanic/Latino, mITT, 0.5 mg, Week 8
[8] = Hispanic or Latino, ITT, 0.5 mg, Week 6
[9] = Hispanic or Latino, ITT, 0.5 mg, Week 8
[10] = Hispanic or Latino, ITT, 1 mg, Week 6
[11] = Hispanic or Latino, ITT, 1 mg, Week 8
[12] = Hispanic or Latino, ITT, 2 mg, Week 6
[13] = Hispanic or Latino, ITT, 2 mg, Week 8
[14] = Placebo (N = 8), mITT Population for Compliance for Black Patients

## CCC(=O)N[C@@H]1CCCc2c(-c3ccc4c(c3)CCC(=O)N4C)cncc21 [baxdrostat, (R)—N-(4-(1-methyl-2-oxo-1,2,3,4-tetrahydroquinolin-6-yl)-5,6,7,8-tetrahydroisoquinolin-8-yl) propionamide]
1 mg, Wk 6
  LS Mean Change from Baseline (SE) in SBP: −13.5 (1.88) mm Hg
2 mg
  SBP Change from Baseline to Week 8, Mean: −19.3 mmHg
  SBP Change from Baseline to Week 8, Median: −18.0 mmHg
  SBP at Week 8, Median: 125.0 mmHg
  efficacy in adherent Hispanic/Latino patients: effective in adherent Hispanic/Latino, but efficacy response was substantially lower
  efficacy in the Black/African American subgroup: effective
2 mg (N = 9), Week 2, mITT, Female Non-Hispanic Female Patients
  Model-Based Least-Squares Mean Change from Baseline (SBP): −15.6
2 mg (N = 9), Week 4, mITT, Female Non-Hispanic Female Patients
  Model-Based Least-Squares Mean Change from Baseline (SBP): −23.8
2 mg (N = 9), Week 6, mITT, Female Non-Hispanic Female Patients
  Model-Based Least-Squares Mean Change from Baseline (SBP): −26.1
2 mg (N = 9), Week 8, mITT, Female Non-Hispanic Female Patients
  Model-Based Least-Squares Mean Change from Baseline (SBP): −32.8
[1]
  Comp w/ Placebo at Week 6, Diff (95% CI): −15.8 (−29.06, −2.47)
  Comp w/ Placebo at Week 8, Diff (95% CI): −19.8 (−29.87, −9.73)
2 mg (N = 13), Week 2, mITT, Non-Hispanic Male Patients
  Model-Based Least-Squares Mean Change from Baseline (SBP): −16.2
2 mg (N = 13), Week 4, mITT, Non-Hispanic Male Patients
  Model-Based Least-Squares Mean Change from Baseline (SBP): −17.4
2 mg (N = 13), Week 6, mITT, Non-Hispanic Male Patients
  Model-Based Least-Squares Mean Change from Baseline (SBP): −21.5
2 mg (N = 13), Week 8, mITT, Non-Hispanic Male Patients
  Model-Based Least-Squares Mean Change from Baseline (SBP): −22.3
[2]
  Comp w/ Placebo at Week 6, Diff (95% CI): −11.6 (−22.42, −0.83)
  Comp w/ Placebo at Week 8, Diff (95% CI): −7.4 (−18.32, 3.53)
2 mg (N = 16), Week 2, mITT Population for Hispanic Compliant Patients
  LSMEANS change from baseline (SBP): −4.6
2 mg (N = 16), Week 2, mITT, Hispanic Male Patients
  Model-Based Least-Squares Mean Change from Baseline (SBP): −5.1
2 mg (N = 16), Week 4, mITT Population for Hispanic Compliant Patients
  LSMEANS change from baseline (SBP): −13.9
2 mg (N = 16), Week 4, mITT, Hispanic Male Patients
  Model-Based Least-Squares Mean Change from Baseline (SBP): −14.6
2 mg (N = 16), Week 6, mITT Population for Hispanic Compliant Patients
  LSMEANS change from baseline (SBP): −15.4
2 mg (N = 16), Week 6, mITT, Hispanic Male Patients
  Model-Based Least-Squares Mean Change from Baseline (SBP): −17.5
2 mg (N = 16), Week 8, mITT Population for Hispanic Compliant Patients
  LSMEANS change from baseline (SBP): −22.8
2 mg (N = 16), Week 8, mITT, Hispanic Male Patients
  Model-Based Least-Squares Mean Change from Baseline (SBP): −21.9
[3]
  Comp w Placebo at Week 6, Diff (95% CI): −6.0 (−13.91, 2.00)
  Comp w Placebo at Week 8, Diff (95% CI): −6.6 (−13.07, −0.13)
[4]
  Comp w/ Placebo at Week 6, Diff (95% CI): −6.2 (−14.14, 1.67)
  Comp w/ Placebo at Week 8, Diff (95% CI): −3.2 (−9.28, 2.87)
2 mg (N = 19), Week 2, mITT, Female Hispanic/Latino Patients
  Model-Based Least-Squares Mean Change from Baseline (SBP): −6.0
2 mg (N = 19), Week 4, mITT, Female Hispanic/Latino Patients
  Model-Based Least-Squares Mean Change from Baseline (SBP): −7.1
2 mg (N = 19), Week 6, mITT, Female Hispanic/Latino Patients
  Model-Based Least-Squares Mean Change from Baseline (SBP): −8.0
2 mg (N = 19), Week 8, mITT, Female Hispanic/Latino Patients
  Model-Based Least-Squares Mean Change from Baseline (SBP): −12.6
[5]
  Comp w/ Placebo at Week 6, Diff (95% CI): −1.5 (−13.53, 10.44)
  Comp w/ Placebo at Week 8, Diff (95% CI): 6.5 (−4.02, 16.98)
2 mg QD, mITT
  SBP at Week 8, Mean: 126.6 mmHg
2 mg, Week 8
  SBP LS mean change from baseline (SE), MMRM: −19.8 (1.67) mm Hg
  SBP LS mean difference (SE) vs placebo: −3.2 (2.23) mmHg
2 mg, Wk 2
  LS Mean Change from Baseline (SE) in SBP: −8.8 (1.65) mm Hg
2 mg, Wk 4
  LS Mean Change from Baseline (SE) in SBP: −13.6 (1.65) mm Hg
2 mg, Wk 6
  LS Mean Change from Baseline (SE) in SBP: −15.7 (1.93) mm Hg
Female Hispanic/Latino, mITT, 0.5 mg, Week 2
  Model-based LS mean change from baseline (LSMEANS): −6.2
Female Hispanic/Latino, mITT, 0.5 mg, Week 4
  Model-based LS mean change from baseline (LSMEANS): −13.4
[6]
  Comp w/ Placebo, Diff (95% CI): −4.9 (−16.80, 6.97) 0.412
  Model-based LS mean change from baseline (LSMEANS): −11.3
[7]
  Comp w/ Placebo, Diff (95% CI): 3.0 (−7.45, 13.46) 0.567
  Model-based LS mean change from baseline (LSMEANS): −16.1
Hispanic or Latino, ITT, 0.5 mg, Week 2
  Model-based LS mean change from baseline (LSMEANS): −6.9
Hispanic or Latino, ITT, 0.5 mg, Week 4
  Model-based LS mean change from baseline (LSMEANS): −13.0
[8]
  Comp w/ Placebo, Diff (95% CI): −4.1 (−10.84, 2.69) 0.235
  Model-based LS mean change from baseline (LSMEANS): −13.3
[9]
  Comp w/ Placebo, Diff (95% CI): −1.1 (−4.54, 6.66) 0.709
  Model-based LS mean change from baseline (LSMEANS): −17.1
Hispanic or Latino, ITT, 1 mg, Week 2
  Model-based LS mean change from baseline (LSMEANS): −7.3
Hispanic or Latino, ITT, 1 mg, Week 4
  Model-based LS mean change from baseline (LSMEANS): −8.1
[10]
  Comp w/ Placebo, Diff (95% CI): −1.4 (−8.71, 5.92)
  Model-based LS mean change from baseline (LSMEANS): −10.6
[11]
  Comp w/ Placebo, Diff (95% CI): 4.0 (−2.00, 10.06)
  Model-based LS mean change from baseline (LSMEANS): −14.1
Hispanic or Latino, ITT, 2 mg, Week 2
  Model-based LS mean change from baseline (LSMEANS): −5.0
Hispanic or Latino, ITT, 2 mg, Week 4
  Model-based LS mean change from baseline (LSMEANS): −10.1
[12]
  Comp w/ Placebo, Diff (95% CI): −2.5 (−9.31, 4.24)
  Model-based LS mean change from baseline (LSMEANS): −11.8
[13]
  Comp w/ Placebo, Diff (95% CI): 1.9 (−3.69, 7.44)
  Model-based LS mean change from baseline (LSMEANS): −16.3
Placebo (N = 8), Week 2, mITT Population for Compliance for Black Patients
  Model-Based Least-Square Mean Change from Baseline (SBP): −7.7
Placebo (N = 8), Week 4, mITT Population for Compliance for Black Patients
  Model-Based Least-Square Mean Change from Baseline (SBP): −18.3
Placebo (N = 8), Week 6, mITT Population for Compliance for Black Patients
  Model-Based Least-Square Mean Change from Baseline (SBP): −20.6
Placebo (N = 8), Week 8, mITT Population for Compliance for Black Patients
  Model-Based Least-Square Mean Change from Baseline (SBP): −27.6
[14]
  Comp w/ Placebo at Week 6, Diff (95% CI): −10.3 (−24.04, 3.43)
  Comp w/ Placebo at Week 8, Diff (95% CI): −13.4 (−25.04, −1.69)
